Values of other authors, collected in PubChem BioAssay AID1259409 (Chemical Carcinogenesis Research Information System (CCRIS), 2018).

Test system: rodent chemically induced tumor inhibition, incidence and multiplicity
Assay: CCRIS tumor inhibitor studies
Conditions: Route [Inhibitor]: ORAL, Promoter: NONE USED

COc1ccc([C@@H]2CC(=O)c3c(O)cc(O[C@@H]4O[C@H](CO[C@@H]5O[C@@H](C)[C@H](O)[C@@H](O)[C@H]5O)[C@@H](O)[C@H](O)[C@H]4O)cc3O2)cc1O
tumour outcome (control, treated, inhibition, significance) (Carcinogen: AZOXYMETHANE, 25843-45-2, Dose [Inhibitor]: 0, 1000 PPM IN DIET FOR 28 WK BEGINNING 1 WK POST CARCINOGEN TREATMENT (STUDY DURATION: 32 WK), Species: RAT, Strain/Sex: F344/MALE, Target Tissue: Type of Lesion: SMALL INTESTINE: TUMOR, Dose [Carcinogen]: 15 MG/KG BW 1/WK FOR 3 WK): 5/17 (29%), 0/20 (0%), 100%, p<0.05
tumour outcome (control, treated, inhibition, significance) (Carcinogen: N-BUTYL-N-(4-HYDROXYBUTYL)NITROSAMINE, 3817-11-6, Dose [Inhibitor]: 0, 1000 PPM IN DIET FOR 8 WK BEGINNING 1 WK PRIOR TO CARCINOGEN TREATMENT (STUDY DURATION: 32 WK), Species: MOUSE, Strain/Sex: ICR/MALE, Target Tissue: Type of Lesion: URINARY BLADDER: PAPILLOMA, Dose [Carcinogen]: 500 PPM IN DRINKING WATER FOR 6 WK): 5/26 (19%), 1/23 (4%), 79%, not significant
tumour outcome (control, treated, inhibition, significance) (Carcinogen: N-BUTYL-N-(4-HYDROXYBUTYL)NITROSAMINE, 3817-11-6, Dose [Inhibitor]: 0, 1000 PPM IN DIET FOR 24 WK BEGINNING 1 WK POST CARCINOGEN TREATMENT (STUDY DURATION: 32 WK), Species: MOUSE, Strain/Sex: ICR/MALE, Target Tissue: Type of Lesion: URINARY BLADDER: PAPILLOMA, Dose [Carcinogen]: 500 PPM IN DRINKING WATER FOR 6 WK): 5/26 (19%), 3/25 (12%), 37%, not significant
tumour outcome (control, treated, inhibition, significance) (Carcinogen: N-BUTYL-N-(4-HYDROXYBUTYL)NITROSAMINE, 3817-11-6, Dose [Inhibitor]: 0, 1000 PPM IN DIET FOR 24 WK BEGINNING 1 WK POST CARCINOGEN TREATMENT (STUDY DURATION: 32 WK), Species: MOUSE, Strain/Sex: ICR/MALE, Target Tissue: Type of Lesion: URINARY BLADDER: TRANSITIONAL CELL CARCINOMA, Dose [Carcinogen]: 500 PPM IN DRINKING WATER FOR 6 WK): 16/26 (62%), 5/25 (20%), 68%, p<0.005
tumour outcome (control, treated, inhibition, significance) (Carcinogen: N-BUTYL-N-(4-HYDROXYBUTYL)NITROSAMINE, 3817-11-6, Dose [Inhibitor]: O, 1000 PPM IN DIET FOR 8 WK BEGINNING 1 WK PRIOR TO CARCINOGEN TREATMENT (STUDY DURATION: 32 WK), Species: MOUSE, Strain/Sex: ICR/MALE, Target Tissue: Type of Lesion: URINARY BLADDER: TRANSITIONAL CELL CARCINOMA, Dose [Carcinogen]: 500 PPM IN DRINKING WATER FOR 6 WK): 16/26 (62%), 3/23 (13%), 79%, p<0.001
tumour outcome (control, treated, inhibition, significance) (Carcinogen: N-METHYL-N-AMYLNITROSAMINE, 13256-07-0, Dose [Inhibitor]: 0, 1000 PPM IN DIET FOR 7 WK BEGINNING 1 WK POST CARCINOGEN TREATMENT (STUDY DURATION: 20 WK), Species: RAT, Strain/Sex: WISTAR/MALE, Target Tissue: Type of Lesion: ESOPHAGUS: SQUAMOUS CELL CARCINOMA, Dose [Carcinogen]: 12.5 MG/KG BW 1/WK FOR 12 WK): 75%, 56%, 25%, not significant
tumour outcome (control, treated, inhibition, significance) (Carcinogen: N-METHYL-N-AMYLNITROSAMINE, 13256-07-0, Dose [Inhibitor]: 0, 1000 PPM IN DIET FOR 7 WK BEGINNING 1 WK POST CARCINOGEN TREATMENT (STUDY DURATION: 20 WK), Species: RAT, Strain/Sex: WISTAR/MALE, Target Tissue: Type of Lesion: ESOPHAGUS: SQUAMOUS CELL PAPILLOMA, Dose [Carcinogen]: 12.5 MG/KG BW 1/WK FOR 12 WK): 100%, 100%, 0%, not significant
tumour outcome (control, treated, inhibition, significance) (Carcinogen: N-METHYL-N-AMYLNITROSAMINE, 13256-07-0, Dose [Inhibitor]: 0, 1000 PPM IN DIET FOR 7 WK BEGINNING 1 WK POST CARCINOGEN TREATMENT (STUDY DURATION: 20 WK), Species: RAT, Strain/Sex: WISTAR/MALE, Target Tissue: Type of Lesion: TONGUE: SQUAMOUS CELL CARCINOMA, Dose [Carcinogen]: 12.5 MG/KG BW 1/WK FOR 12 WK): 17%, 16%, 6%, not significant
tumour outcome (control, treated, inhibition, significance) (Carcinogen: N-METHYL-N-AMYLNITROSAMINE, 13256-07-0, Dose [Inhibitor]: 0, 1000 PPM IN DIET FOR 7 WK BEGINNING 1 WK POST CARCINOGEN TREATMENT (STUDY DURATION: 20 WK), Species: RAT, Strain/Sex: WISTAR/MALE, Target Tissue: Type of Lesion: TONGUE: SQUAMOUS CELL PAPILLOMA, Dose [Carcinogen]: 12.5 MG/KG BW 1/WK FOR 12 WK): 33%, 16%, 52%, not calculated
tumour outcome (control, treated, inhibition, significance) (Carcinogen: N-METHYL-N-AMYLNITROSAMINE, 13256-07-0, Dose [Inhibitor]: 0, 1000 PPM IN DIET FOR 13 WK BEGINNING 1 WK PRIOR TO CARCINOGEN TREATMENT (STUDY DURATION: 20 WK), Species: RAT, Strain/Sex: WISTAR/MALE, Target Tissue: Type of Lesion: ESOPHAGUS: SQUAMOUS CELL CARCINOMA, Dose [Carcinogen]: 12.5 MG/KG BW 1/WK FOR 12 WK): 75%, 45%, 40%, not significant
tumour outcome (control, treated, inhibition, significance) (Carcinogen: N-METHYL-N-AMYLNITROSAMINE, 13256-07-0, Dose [Inhibitor]: 0, 1000 PPM IN DIET FOR 13 WK BEGINNING 1 WK PRIOR TO CARCINOGEN TREATMENT (STUDY DURATION: 20 WK), Species: RAT, Strain/Sex: WISTAR/MALE, Target Tissue: Type of Lesion: ESOPHAGUS: SQUAMOUS CELL PAPILLOMA, Dose [Carcinogen]: 12.5 MG/KG BW 1/WK FOR 12 WK): 100%, 100%, 0%, not significant
tumour outcome (control, treated, inhibition, significance) (Carcinogen: N-METHYL-N-AMYLNITROSAMINE, 13256-07-0, Dose [Inhibitor]: 0, 1000 PPM IN DIET FOR 13 WK BEGINNING 1 WK PRIOR TO CARCINOGEN TREATMENT (STUDY DURATION: 20 WK), Species: RAT, Strain/Sex: WISTAR/MALE, Target Tissue: Type of Lesion: TONGUE: SQUAMOUS CELL CARCINOMA, Dose [Carcinogen]: 12.5 MG/KG BW 1/WK FOR 12 WK): 17%, 0%, 100%, not calculated
tumour outcome (control, treated, inhibition, significance) (Carcinogen: N-METHYL-N-AMYLNITROSAMINE, 13256-07-0, Dose [Inhibitor]: 0, 1000 PPM IN DIET FOR 13 WK BEGINNING 1 WK PRIOR TO CARCINOGEN TREATMENT (STUDY DURATION: 20 WK), Species: RAT, Strain/Sex: WISTAR/MALE, Target Tissue: Type of Lesion: TONGUE: SQUAMOUS CELL PAPILLOMA, Dose [Carcinogen]: 12.5 MG/KG BW 1/WK FOR 12 WK): 33%, 10%, 70%, not significant
